Experimental data as given in patent US20040219100A1, “Composition useful for the treatment of tumors” (priority 2003, published 2004).

Test system: JJ5 Breast Cancer cells
Assay: Kinetics of binding and retention of radioactivity by the cells
Format: cell-based, human
From the text: Breast cancer cells express up to 100-fold higher levels of EGFR than do normal epithelial tissues. EGFR expression in breast cancer bone metastasis biopsies ranged from 1-1300 fmol/mg membrane protein (approximately 400-1,000,000 receptors/cell) and was associated with high relapse rates and poor long term survival. Normal epithelial cells express <10^4 receptors/cell. For the normal breast cell line HBL-100, 8000 EGFR/cell has been reported. The expression of EGFR in breast cancer cell lines has a reported range of 800 EGFR/cell for MCF-7 cells to 10^6 EGFR/cell for MDA-MB-468 cells. […] Utilizing the Auger electron emitter ^111In was used in the initial experiments to illustrate the utility of the invention using EGF-^111In-labeled transferrin compounds. […] The cell pellet was separated from the supernatant and counted in a g-scintillation counter to determine bound (B) and free (F) radioactivity. Non-specific binding was determined by conducting the assay in 100 nM hEGF. […] Internalized fraction was measured by determining the proportion of radioactivity which could not be displaced from the cell surface by 100 nM hEGF. Cell-associated binding (surface-binding and intracellular accumulation) was expressed as a percentage of medium radioactivity bound per mg of cell study protein.

EGF-^111In-labeled transferrin compound: human epidermal growth factor (EGF) operatively linked (peptide or PEG linker, biotin-streptavidin) to 111In-radiolabeled human transferrin
retained by the breast cancer cells (37° C., JJ5 cells): at least 24 hours | 111In radioactivity lost from the cells in vitro (over a 24 hour period at 37° C.): < 8%
